From patent US20260364214A1, “MULTIVALENT FIBROBLAST ACTIVATION PROTEIN LIGANDS FOR TARGETED DELIVERY APPLICATIONS” (Philochem AG, priority 2022, published 2026)

Tested on: SK-RC-52.hFAP tumors
Experiment: Quantitative biodistribution in SK-RC-52.hFAP tumor bearing mice
Type: in vivo, mouse (female athymic Balb/c AnNRj-Foxn1)
Conditions: i.v. 250 nmol/kg, 50 MBq/kg
Method: SK-RC-52.hFAP were grown to 80% confluence in RPMI-1640 with 10% fetal bovine serum (FBS) and 1% antibiotic-antimycotic and detached with Trypsin-EDTA (ethylenediaminetetraacetic acid) 0.05%. Tumor cells were resuspended in Hanks' Balanced Salt Solution medium. Aliquots of 5 million cells (100 μL of suspension) were injected subcutaneously in the right flank of female athymic Balb/c AnNRj-Foxn1 mice (6 to 8 wk of age).
Radiolabeling of ESV6-DOTAGA, Bi-ESV6-DOTAGA, Tri-ESV6-DOTAGA, Tetra-ESV6-DOTAGA, Hexa-ESV6-DOTAGA, Octa-ESV6-DOTAGA and FAP-2286 with lutetium-177 (a therapeutic radionuclide) was performed with different specific activities for three different studies (biodistribution, therapy and dose optimization).
Prior to the biodistribution study, precursors (100 nmol) were dissolved in 100 μL of milliQ water and diluted with 200 μL of sodium acetate (1 M in water, pH=4.5). 20 MBq of ^177Lu solution were added and the mixture was heated at 90 °C for 10 minutes, followed by dilution with […] of PBS to achieve final volume of 2 mL (20 doses of 100 μL each).
ESV6-DOTAGA, Bi-ESV6-DOTAGA, Tri-ESV6-DOTAGA, Tetra-ESV6-DOTAGA, Hexa-ESV6-DOTAGA, Octa-ESV6-DOTAGA and FAP-2286 were radiolabeled with ^177Lu as described above. Tumors were allowed to grow to an average volume of 300 mm^3. Mice were randomized and injected intravenously with radiolabeled preparations of ^177Lu-ESV6, ^177Lu-Bi-ESV6, ^177Lu-Tri-ESV6, Tetra-ESV6-DOTAGA, Hexa-ESV6-DOTAGA, Octa-ESV6-DOTAGA or ^177Lu-FAP-2286 (250 nmol/kg; 50 MBq/kg). Mice were euthanized at different time-points after the intravenous injection by CO2 asphyxiation. Tumors, organs, and blood were collected, weighted, and radioactivity was measured with a Packard Cobra Gamma Counter. Values are expressed as percent ID/g±SD [FIG. 4]. The % ID/g in the tumors was corrected considering the SK-RC-52.hFAP tumor growth rate.
Quantitative in vivo biodistribution of ^177Lu-ESV6-DOTAGA, ^177Lu-Bi-ESV6-DOTAGA, ^177Lu-Tri-ESV6-DOTAGA, ^177Lu-FAP-2286, Tetra-ESV6-DOTAGA, Hexa-ESV6-DOTAGA and Octa-ESV6-DOTAGA at different time points after intravenous administration (250 nmol/kg, 50 MBq/kg) in mice bearing SK-RC-52.hFAP tumors, are shown in Tables 1 to 4 and 10 to 12. Data are reported as % ID/g±standard deviation.
Tumor-to-organ ratios of ^177Lu-ESV6-DOTAGA, ^177Lu-Bi-ESV6-DOTAGA, ^177Lu-Tri-ESV6-DOTAGA, ^177Lu-FAP-2286, Tetra-ESV6-DOTAGA, Hexa-ESV6-DOTAGA and Octa-ESV6-DOTAGA, at different time points after intravenous administration (250 nmol/kg, 50 MBq/kg) in mice bearing SK-RC-52.hFAP tumors, are shown in Tables 5 to 8 and 13 to 15. Avg.=average; Std.d=standard deviation.

## N#C[C@@H]1CC(F)(F)CN1C(=O)CNC(=O)c1ccnc2c(NC(=O)CCC(=O)NCCNC(=O)CCOCC(COCCC(=O)NCCNC(=O)CCC(=O)Nc3cccc4c(C(=O)NCC(=O)N5CC(F)(F)C[C@H]5C#N)ccnc34)(COCCC(=O)NCCNC(=O)CCC(=O)Nc3cccc4c(C(=O)NCC(=O)N5CC(F)(F)C[C@H]5C#N)ccnc34)NC(=O)CCOCC(COCCC(=O)NC(COCCC(=O)NCCNC(=O)CCC(=O)Nc3cccc4c(C(=O)NCC(=O)N5CC(F)(F)C[C@H]5C#N)ccnc34)(COCCC(=O)NCCNC(=O)CCC(=O)Nc3cccc4c(C(=O)NCC(=O)N5CC(F)(F)C[C@H]5C#N)ccnc34)COCCC(=O)NCCNC(=O)CCC(=O)Nc3cccc4c(C(=O)NCC(=O)N5CC(F)(F)C[C@H]5C#N)ccnc34)NC(=O)CCC(C(=O)O)N3CCN(CC(=O)[O-])CCN(CC(=O)[O-])CCN(CC(=O)[O-])CC3)cccc12.[177Lu+3] (stereo partly shown) [^177Lu-Hexa-ESV6-DOTAGA]
6 h
  Tumor to organs ratio, Blood: 7.84
  Tumor to organs ratio, Heart: 8.50
  Tumor to organs ratio, Intestine: 13.86
  Tumor to organs ratio, Kidney: 5.24
  Tumor to organs ratio, Liver: 0.04
  Tumor to organs ratio, Lung: 0.43
  Tumor to organs ratio, Muscle: 9.52
  Tumor to organs ratio, Spleen: 0.07
  Tumor to organs ratio, Tail: 4.76
6 h post injection
  Injected dose per gram, Blood: 0.36 % ID/g
  Injected dose per gram, Heart: 0.33 % ID/g
  Injected dose per gram, Intestine: 0.24 % ID/g
  Injected dose per gram, Kidney: 0.53 % ID/g
  Injected dose per gram, Liver: 62.54 % ID/g
  Injected dose per gram, Lung: 6.91 % ID/g
  Injected dose per gram, Muscle: 0.66 % ID/g
  Injected dose per gram, Spleen: 41.26 % ID/g
  Injected dose per gram, Tail: 0.70 % ID/g
  Injected dose per gram, Tumor: 2.77 % ID/g
24 h
  Tumor to organs ratio, Blood: 17.77
  Tumor to organs ratio, Heart: 7.90
  Tumor to organs ratio, Intestine: 20.76
  Tumor to organs ratio, Kidney: 3.37
  Tumor to organs ratio, Liver: 0.03
  Tumor to organs ratio, Lung: 0.34
  Tumor to organs ratio, Muscle: 13.70
  Tumor to organs ratio, Spleen: 0.04
  Tumor to organs ratio, Tail: 1.39
24 h post injection
  Injected dose per gram, Blood: 0.10 % ID/g
  Injected dose per gram, Heart: 0.23 % ID/g
  Injected dose per gram, Intestine: 0.10 % ID/g
  Injected dose per gram, Kidney: 0.57 % ID/g
  Injected dose per gram, Liver: 53.45 % ID/g
  Injected dose per gram, Lung: 5.33 % ID/g
  Injected dose per gram, Muscle: 0.14 % ID/g
  Injected dose per gram, Spleen: 47.44 % ID/g
  Injected dose per gram, Tail: 1.65 % ID/g
  Injected dose per gram, Tumor: 1.80 % ID/g
96 h
  Tumor to organs ratio, Blood: 85.06
  Tumor to organs ratio, Heart: 8.99
  Tumor to organs ratio, Intestine: 20.47
  Tumor to organs ratio, Kidney: 0.99
  Tumor to organs ratio, Liver: 0.03
  Tumor to organs ratio, Lung: 1.10
  Tumor to organs ratio, Muscle: 35.84
  Tumor to organs ratio, Spleen: 0.04
  Tumor to organs ratio, Tail: 2.03
96 h post injection
  Injected dose per gram, Blood: 0.02 % ID/g
  Injected dose per gram, Heart: 0.16 % ID/g
  Injected dose per gram, Intestine: 0.07 % ID/g
  Injected dose per gram, Kidney: 1.37 % ID/g
  Injected dose per gram, Liver: 49.80 % ID/g
  Injected dose per gram, Lung: 1.38 % ID/g
  Injected dose per gram, Muscle: 0.05 % ID/g
  Injected dose per gram, Spleen: 38.61 % ID/g
  Injected dose per gram, Tail: 1.02 % ID/g
  Injected dose per gram, Tumor: 1.36 % ID/g

## N#C[C@@H]1CC(F)(F)CN1C(=O)CNC(=O)c1ccnc2c(NC(=O)CCC(=O)NCCNC(=O)CCOCC(COCCC(=O)NCCNC(=O)CCC(=O)Nc3cccc4c(C(=O)NCC(=O)N5CC(F)(F)C[C@H]5C#N)ccnc34)(COCCC(=O)NCCNC(=O)CCC(=O)Nc3cccc4c(C(=O)NCC(=O)N5CC(F)(F)C[C@H]5C#N)ccnc34)NC(=O)CCC(C(=O)O)N3CCN(CC(=O)O)CCN(CC(=O)O)CCN(CC(=O)O)CC3)cccc12 (stereo partly drawn) [Tri-ESV6-DOTAGA, 2,2′,2″-(10-(19-carboxy-1-((4-((2-((S)-2-cyano-4,4-difluoropyrrolidin-1-yl)-2-oxoethyl)carbamoyl)quinolin-8-yl)amino)-14,14-bis((3-((2-(4-((4-((2-((S)-2-cyano-4,4-difluoropyrrolidin-1-yl)-2-oxoethyl)carbamoyl)quinolin-8-yl)amino)-4-oxobutanamido)ethyl)amino)-3-oxopropoxy)methyl)-1,4,9,16-tetraoxo-12-oxa-5,8,15-triazanonadecan-19-yl)-1,4,7,10-tetraazacyclododecane-1,4,7-triyl)triacetic acid]
  tumor uptake / biodistribution profile, in words: remarkably high tumor uptake even after 48, 72 and 96 hours post injection
